Reference: patent US8420657B2 (Novartis AG, priority 2008, dated 2013)

Legend:
[1] = biological target: T1, GST-JAK2(808-1132) (Homo sapiens, UniProt O60674); assay: JAK2 kinase assay (Caliper mobility shift, LabChip 3000); assay type: biochemical
T1 construct: GST-JAK2(808-1132); purchased Invitrogen (Carlsbad, USA) #4288
Procedure, shortened: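 Recombinant GST-JAK2(808-1132) kinase domain with FITC-labelled JAK3tide peptide substrate and ATP; 60 min at 30 °C, EDTA stop. Substrate/product ratio read by microfluidic mobility shift; compounds at 8 final concentrations, 10 to 0.003 μM.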

[2] = test system: JAK2-dependent nuclear translocation of STAT5-GFP in U-2 OS osteosarcoma cells; assay: STAT5 nuclear translocation assay (Cellomics), rhEpo stimulated U-2 OS STAT5-GFP cells; assay type: cell-based; conditions: Homo sapiens, U2OS; STAT5 translocation pathway
Procedure, shortened: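 U-2 OS cells stably expressing STAT5a-GFP and EpoR pre-treated with compound (final 10 μM to 0.003 μM, 0.1% DMSO) for 30 min at 37° C., then stimulated 1 h with 5 U/ml rhEpo. Nuclear-cytoplasmic GFP differential quantified by automated imaging (≥1000 cells/well, Hoechst nuclear mask). IC50 from % translocation normalized to untreated and DMSO-stimulated controls.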

T1 sequence (O60674 808-1132): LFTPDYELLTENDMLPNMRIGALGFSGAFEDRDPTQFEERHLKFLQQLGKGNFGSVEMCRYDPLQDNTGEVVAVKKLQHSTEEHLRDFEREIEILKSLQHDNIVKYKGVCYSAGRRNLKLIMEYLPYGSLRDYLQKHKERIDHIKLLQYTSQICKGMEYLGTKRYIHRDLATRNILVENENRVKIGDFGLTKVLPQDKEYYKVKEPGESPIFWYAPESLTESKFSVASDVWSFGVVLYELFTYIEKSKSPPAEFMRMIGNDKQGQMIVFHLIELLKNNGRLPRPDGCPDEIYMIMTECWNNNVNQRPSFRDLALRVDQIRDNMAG

SMILES | IC50 [1] [nM] | IC50 [2] [nM]
Fc1cc(-n2ccc3cnc(Nc4ccc([C@H]5CNCCN5)cc4)nc32)cc(F)c1CN1CCOCC1 [Example 474, [7-(3,5-Difluoro-4-morpholin-4-ylmethyl-phenyl)-7H-pyrrolo[2,3-d]pyrimidin-2-yl]-((S)-4-piperazin-2-yl-phenyl)-amine] | ≤ 3 | 8.6
Fc1cc(-n2ccc3cnc(Nc4ccc([C@@H]5CNCCN5)cc4)nc32)cc(F)c1CN1CCOCC1 [Example 475, [7-(3,5-Difluoro-4-morpholin-4-ylmethyl-phenyl)-7H-pyrrolo[2,3-d]pyrimidin-2-yl]-((R)-4-piperazin-2-yl-phenyl)-amine] | ≤ 3 | 5.3
C[C@@H]1CN(Cc2ccc(Nc3ncc4ccn(-c5cc(F)c(CN6CCOCC6)c(F)c5)c4n3)c(F)c2)C[C@H](C)N1 [Example 477, [7-(3,5-Difluoro-4-morpholin-4-ylmethyl-phenyl)-7H-pyrrolo[2,3-d]pyrimidin-2-yl]-[4-(cis-3,5-dimethyl-piperazin-1-ylmethyl)-2-fluoro-phenyl]-amine] | 17 | 718
OC1CN(Cc2ccc(Nc3ncc4ccn(-c5cc(F)c(CN6CCOCC6)c(F)c5)c4n3)cc2)C1 [Example 479, 1-{4-[7-(3,5-Difluoro-4-morpholin-4-ylmethyl-phenyl)-7H-pyrrolo[2,3-d]pyrimidin-2-ylamino]-benzyl}-azetidin-3-ol] | 3.5 | 15
Fc1cc(-n2ccc3cnc(Nc4ccc(CN5CCOCC5)nc4)nc32)cc(F)c1CN1CCOCC1 [Example 480, [7-(3,5-Difluoro-4-morpholin-4-ylmethyl-phenyl)-7H-pyrrolo[2,3-d]pyrimidin-2-yl]-(6-morpholin-4-ylmethyl-pyridin-3-yl)-amine] | ≤ 3 | 71
COC1CN(Cc2c(F)cc(-n3ccc4cnc(Nc5ccc(C)c(CN6CCNCC6)c5)nc43)cc2F)C1 [Example 482, {7-[3,5-Difluoro-4-(3-methoxy-azetidin-1-ylmethyl)-phenyl]-7H-pyrrolo[2,3-d]pyrimidin-2-yl}-(4-methyl-3-piperazin-1-ylmethyl-phenyl)-amine] | ≤ 3 | 150
Cc1cc(Nc2ncc3ccn(-c4cc(F)c(CN5CCOCC5=O)c(F)c4)c3n2)cnc1N1C[C@@H](C)N[C@@H](C)C1 [Example 483, 4-(4-{2-[6-(cis-3,5-Dimethyl-piperazin-1-yl)-5-methyl-pyridin-3-ylamino]-pyrrolo[2,3-d]pyrimidin-7-yl}-2,6-difluoro-benzyl)-morpholin-3-one] | ≤ 3 | 12.3
C[C@@H]1CN(Cc2ccc(Nc3ncc4ccn(-c5cc(F)c(CN6CCOCC6=O)c(F)c5)c4n3)cc2)C[C@H](C)N1 [Example 484, 4-(4-{2-[4-(cis-3,5-Dimethyl-piperazin-1-ylmethyl)-phenylamino]-pyrrolo[2,3-d]pyrimidin-7-yl}-2,6-difluoro-benzyl)-morpholin-3-one] | ≤ 3 | 67
Cc1ccc(Nc2ncc3ccn(-c4cc(F)c(CN5CCOCC5=O)c(F)c4)c3n2)cc1CN1CCNCC1 [Example 485, 4-{2,6-Difluoro-4-[2-(4-methyl-3-piperazin-1-ylmethyl-phenylamino)-pyrrolo[2,3-d]pyrimidin-7-yl}-benzyl]-morpholin-3-one] | ≤ 3 | 110
Fc1cc(-n2ccc3cnc(Nc4ccc(CN5CCNCC5)nc4)nc32)cc(F)c1CN1CCOCC1 [Example 486, [7-(3,5-Difluoro-4-morpholin-4-yl methyl-phenyl)-7H-pyrrolo[2,3-d]pyrimidin-2-yl]-(6-piperazin-1-ylmethyl-pyridin-3-yl)-amine] | ≤ 3 | 487
CN1CCN(Cc2cc(Nc3ncc4ccn(-c5cc(F)c(CN6CCOCC6)c(F)c5)c4n3)ccc2Cl)CC1 [Example 494, [4-Chloro-3-(4-methyl-piperazin-1-yl methyl)-phenyl]-[7-(3,5-difluoro-4-morpholin-4-ylmethyl-phenyl)-7H-pyrrolo[2,3-d]pyrimidin-2-yl]-amine] | ≤ 3 | 394
O=C1CNCCN1Cc1ccc(Nc2ncc3ccn(-c4cc(F)c(CN5CCOCC5)c(F)c4)c3n2)cc1 [Example 498, 1-{4-[7-(3,5-Difluoro-4-morpholin-4-ylmethyl-phenyl)-7H-pyrrolo[2,3-d]pyrimidin-2-ylamino]-benzyl}-piperazin-2-one] | ≤ 3 | 83
C[C@@H]1CN(c2ccc(Nc3ncc4ccn(-c5ccc(C(=O)N6CCOCC6)c(F)c5)c4n3)cn2)C[C@H](C)N1 [Example 499, (4-{2-[6-(cis-3,5-Dimethyl-piperazin-1-yl)-pyridin-3-ylamino]-pyrrolo[2,3-d]pyrimidin-7-yl}-2-fluoro-phenyl)-morpholin-4-yl-methanone] | 4.8 | 220

Now from value to compound:

IC50 [1] [nM] | IC50 [2] [nM] | SMILES
≤ 3 | 12.3 | CC1(C)CN(Cc2ccc(Nc3ncc4ccn(-c5cc(F)c(CN6CCOCC6)c(F)c5)c4n3)cc2)CCN1 [Example 473, [7-(3,5-Difluoro-4-morpholin-4-ylmethyl-phenyl)-7H-pyrrolo[2,3-d]pyrimidin-2-yl]-[4-(3,3-dimethyl-piperazin-1-ylmethyl)-phenyl]-amine]
5.5 | 51 | CN1CCN(c2ccc(Nc3ncc4ccn(-c5cc(F)c(CN6CCOCC6)c(F)c5)c4n3)cn2)C(=O)C1 [Example 478, 1-{5-[7-(3,5-Difluoro-4-morpholin-4-ylmethyl-phenyl)-7H-pyrrolo[2,3-d]pyrimidin-2-ylamino]-pyridin-2-yl}-4-methyl-piperazin-2-one]
≤ 3 | 5.8 | Cc1cc(Nc2ncc3ccn(-c4cc(F)c(CN5CCOCC5)c(F)c4)c3n2)cnc1N1CCNCC1 [Example 487, [7-(3,5-Difluoro-4-morpholin-4-ylmethyl-phenyl)-7H-pyrrolo[2,3-d]pyrimidin-2-yl]-(5-methyl-6-piperazin-1-yl-pyridin-3-yl)-amine]
≤ 3 | 40.5 | Cc1cc(Nc2ncc3ccn(-c4cc(F)c(CN5CCOCC5)c(F)c4)c3n2)cnc1N1CCNC(C)(C)C1 [Example 488, [7-(3,5-Difluoro-4-morpholin-4-ylmethyl-phenyl)-7H-pyrrolo[2,3-d]pyrimidin-2-yl]-[6-(dimethyl-piperazin-1-yl)-5-methyl-pyridin-3-yl]-amine]
0.7 | 12 | C[C@@H]1CN(c2ncc(Nc3ncc4ccn(-c5cc(F)c(CN6CCOCC6)c(F)c5)c4n3)cc2Cl)C[C@H](C)N1 [Example 489, [5-Chloro-6-(cis-3,5-dimethyl-piperazin-1-yl)-pyridin-3-yl]-[7-(3,5-difluoro-4-morpholin-4-ylmethyl-phenyl)-7H-pyrrolo[2,3-d]pyrimidin-2-yl]-amine]
3.4 | 14 | C[C@@H]1CN(c2ncc(Nc3ncc4ccn(-c5cc(F)c(CN6CCOCC6)c(F)c5)c4n3)cc2C#N)C[C@H](C)N1 [Example 490, 5-[7-(3,5-Difluoro-4-morpholin-4-ylmethyl-phenyl)-7H-pyrrolo[2,3-d]pyrimidin-2-ylamino]-2-(cis-3,5-dimethyl-piperazin-1-yl)-nicotinonitrile]
≤ 3 | 15 | O=C1CN(c2ncc(Nc3ncc4ccn(-c5cc(F)c(CN6CCOCC6)c(F)c5)c4n3)cc2Cl)CCN1 [Example 491, 4-{3-Chloro-5-[7-(3,5-difluoro-4-morpholin-4-ylmethyl-phenyl)-7H-pyrrolo[2,3-d]pyrimidin-2-ylamino]-pyridin-2-yl}-piperazin-2-one]
2.2 | 55.5 | CC1(C)NCCN(c2ccc(Nc3ncc4ccn(-c5cc(F)c(CN6CCOCC6)c(F)c5)c4n3)cn2)C1=O [Example 492, 1-{5-[7-(3,5-Difluoro-4-morpholin-4-ylmethyl-phenyl)-7H-pyrrolo[2,3-d]pyrimidin-2-ylamino]-pyridin-2-yl}-3,3-dimethyl-piperazin-2-one]
≤ 3 | 104 | Cc1cc(Nc2ncc3ccn(-c4cc(F)c(CN5CCOCC5)c(F)c4)c3n2)cnc1N1CCNC(C)(C)C1=O [Example 493, 1-{5-[7-(3,5-Difluoro-4-morpholin-4-ylmethyl-phenyl)-7H-pyrrolo[2,3-d]pyrimidin-2-ylamino]-3-methyl-pyridin-2-yl}-3,3-dimethyl-piperazin-2-one]
≤ 3 | 51 | Cc1cc(Nc2ncc3ccn(-c4cc(F)c(CN5CCOCC5)c(F)c4)c3n2)cnc1N1CCNCC1=O [Example 495, 1-{5-[7-(3,5-Difluoro-4-morpholin-4-ylmethyl-phenyl)-7H-pyrrolo[2,3-d]pyrimidin-2-ylamino]-3-methyl-pyridin-2-yl}-piperazin-2-one]
≤ 3 | 97.2 | C[C@@H]1CN(c2ncc(Nc3ncc4ccn(-c5cc(F)c(CN6CCOCC6)c(F)c5)c4n3)cc2C(F)(F)F)C[C@H](C)N1 [Example 496, [7-(3,5-Difluoro-4-morpholin-4-ylmethyl-phenyl)-7H-pyrrolo[2,3-d]pyrimidin-2-yl]-[6-(cis-3,5-dimethyl-piperazin-1-yl)-5-trifluoromethyl-pyridin-3-yl]-amine]
≤ 3 | 7.7 | COc1cc(Nc2ncc3ccn(-c4cc(F)c(CN5CCOCC5)c(F)c4)c3n2)cnc1N1C[C@@H](C)N[C@@H](C)C1 [Example 497, [7-(3,5-Difluoro-4-morpholin-4-ylmethyl-phenyl)-7H-pyrrolo[2,3-d]pyrimidin-2-yl]-[6-(cis-3,5-dimethyl-piperazin-1-yl)-5-methoxy-pyridin-3-yl]-amine]
